Data set [1] can be described thus: Binding assay for glycopeptide antibiotic (biotinylated vancomycin, immobilized peptide). As to conditions: peptide immobilized on streptavidin plate. On the procedure:
A typical binding assay for glycopeptide antibiotic was performed according to the following procedure. Briefly, synthetic peptides comprising an amino acid sequence to be characterized for binding were biotinylated to facilitate immobilization on streptavidin-coated 96-well plates. The microtiter plates were coated with streptavidin by adding 50 μl of a 10 μg/ml streptavidin solution in 0.1 M NaHCO3, and incubating the plates for at least 3 hours. The plate wells were blocked by adding 150 μl of a 1% BSA solution in 0.1 NaHCO3 with incubation for at least 2 hours, and the plates were stored at 4° C. until needed. Before use, the streptavidin plates were washed extensively in buffer-T. Added per well was peptide (100 μl 0.1 μM peptide in buffer-T), and then incubated for 30 minutes at room temperature with shaking. 200 μl of 0.5 mM biotin in buffer-T was added to block the remaining streptavidin sites, and plates were incubated for 15 minutes at room temperature. Plates were then washed with buffer-T to remove the excess biotin and peptide. Serial dilutions of biotinylated glycopeptide antibiotic in buffer-T were added (100 μl) to each well, representing a range of concentrations between 100 μM and […]. Plates were incubated for 30 minutes at room temperature with shaking prior to washing several times with buffer-T. Glycopeptide antibiotic was then detected by adding 100 μl of a diluted streptavidin-alkaline phosphatase conjugate to each well and incubated at room temperature for 30 minutes. Excess conjugate was removed by repeated washes with buffer-T, and the amount of alkaline phosphatase remaining in the well was detected using a pNPP (para-nitrophenylphosphate) colorimetric enzymatic assay. The relative amount of glycopeptide antibiotic captured by the peptides was determined by measuring the absorbance at 405 nm of the colored product of the alkaline phosphatase reaction. The EC50 was determined for each peptide relative to the binding affinity for the glycopeptide antibiotic used in the assay, as shown in Table 8 (with vancomycin as a representative glycopeptide antibiotic).

A short description of data set [2]: Critical micelle concentration (methyl orange assay). As to conditions: pH 7 PBS, A484. Type of data set: physicochemical. How it is done: Formation of a composition of the invention, and evidence of macromolecular network formation, may be monitored or quantified by any means known in the art. In this example, macromolecular formation was detected using a standard assay for determining critical micelle concentration (“CMC”). In this assay, a solution containing the composition of the invention (in a range of concentrations in pH 7 phosphate buffered saline (“PBS”)) was mixed with a solution of methyl orange (0.04 mM in PBS), and the absorbance of the mixture was measured at 484 nm (A484). CMC is the concentration at which a sharp decrease in absorbance at A484 is observed, a change in the optical properties of methyl orange when trapped in a hydrophobic phase, such as caused by self-association as a macromolecular network (Table 7, “CMC”). Also included in this assay were an assay control peptide having an amino acid sequence of SEQ ID NO:122 (Table 7, “Control”), and compound 119 (a PEGylated peptide, the peptide having an amino acid sequence of SEQ ID NO:122, as described in more detail in Example 6 herein).

The nature of data set [3]: Stent flow model, retention of radiolabelled composition on coated stent. In kind it is binding. As to conditions: 5 ml/min, 37° C.
Description: In this example, an in vitro model for in vivo stability on a medical device comprising a stent was performed. The stent flow model included a “circulatory system” comprising a peristaltic pump and clear silicone tubing into which is placed a stent (8 mm, stainless steel) coated with a composition according to the invention. Coating of the stents was accomplished by incubating the stents with radiolabelled composition 132 (specific activity 2,400 cpm/pmole at 20 μM in PBS) for 1 hour at 20° C., followed by extensive washing with buffer. […] In another variation of the stent flow model, 10% BSA+10 mM guanidinium chloride was circulated through the circulatory system at a flow rate of 5 ml/min for 18 hours at 37° C. After circulation in the respective variations of the stent flow model, the coated stents were then counted for radioactivity. To serve as an assay “control”, some coated stents were not placed in the stent flow model, but rather counted for radioactive counts to provide a reference from which percent retention could be calculated for those coated stents included in the stent flow model.
In data set [4] the test system is Staphylococcus aureus strain MZ100. Kind of data set: Tibia pin assay (coated titanium pins with vancomycin, bacterial culture). Type of data set: cell-based. The arrangement: key: —: no cfus; too many cfus to count, as they converge into one spot. As to conditions: 3 hours 37° C. The text has this: In this assay, titanium pins were used as a model for tibia pins. Briefly, sterile pins were first coated with biofunctional composition (“SEQ ID NO:124-linker-SEQ ID NO:122”) comprising a substrate-binding peptide having binding specificity for vancomycin (“SEQ ID NO:124”) linked to a substrate-binding peptide having binding specificity for metal (“SEQ ID NO:122”), or a composition of the invention formed from compound comprising the biofunctional composition covalently coupled to fatty acid. The respective coatings also include vancomycin bound thereto. The coated pins were then placed in a silicone tube containing liquid bacterial growth medium and inoculated with bacteria. After incubation, the pins were removed, and then the liquid growth medium was serially diluted. The serial dilutions were inoculated onto bacterial culture plates, the plates were incubated, and counted on the plates were bacterial colonies.
In this assay, test samples (biofunctional composition (Table 6, “BC”) or compositions 133, 134, 135, 136 139) each were used to coat a pin by incubating the test sample (in a range of from about 0.8 mM to about 1 mM) with 2.5 μl of a 10 mM vancomycin solution and PBS to a final volume of 250 μl in a microtube (3 pins per tube) for 60 minutes at room temperature with occasional agitation. In a piece of silicone tubing (1.5 mm inner diameter, 50 mm long), added is tryptic soy broth+0.2% glucose, the coated pin, and 103 colony forming units (cfu) of Staphylococcus aureus strain MZ100 in either a 20 μl inoculum, 40 μl inoculum, or 60 μl inoculum. The tubing is clamped closed, and the tubing is incubated for 37° C. for 3 hours. After 3 hours, serial dilutions (1:10, 1:100, 1:1000) were made of the culture media from each tubing, and 10 μl of the undiluted culture medium and of each dilution were spotted onto the bacterial culture plate. The bacterial culture plate was incubated overnight at 37° C., and then the cfus were counted. The results, a composite of different assay runs, are shown in Table 6 (“−” means no cfus; “many” means too many cfus to count, as they converge into one spot; “NT” means not tested).

Data set [5] is classed as binding. As to conditions: 18 hour incubation in 10% BSA+10 mM guanidinium chloride; FIG. 1. The text has this:
In this example, illustrated are unexpected beneficial properties of the composition of the invention, including but not limited to, one or more improved biophysical properties. Such one or more unexpected beneficial properties of a composition of the invention may comprise an increase in stability. An increase in stability may comprise any one or more of resistance to chemical denaturation, resistance to proteolytic degradation, improved retention to a substrate (e.g., resistance to being competed off a substrate to which it is bound, such as by proteins or other biomolecules found in body tissues). Thus, to ascertain a beneficial property of a composition of the invention, it is compared to the properties of a component of the composition-namely, a substrate-binding peptide by itself (e.g., without fatty acid covalently coupled thereto). An assay was developed that, from our direct comparisons (see, e.g., discussion of FIG. 2 below, and Example 7 herein), mimicked the effect of incubation of substrate-binding peptide with human plasma on stability of binding of a substrate-binding peptide to its substrate. The assay utilized incubations in the presence of 10% bovine serum album (BSA) with 10 mM guanidinium chloride. The high BSA concentration mimics the elevated albumin content of human plasma, and the guanidinium chloride is used to compete with any charged interactions involved in binding of the substrate-binding peptide to its substrate.
In this assay, two immunoassay plates were prepared for a “side-by-side” comparison of binding of a test sample (substrate-binding peptide or composition of the invention) to its substrate with or without the presence of 10% BSA with 10 mM guanidinium chloride. The wells of each 96-well polypropylene plate were incubated with 350 μl BSA 1% in PBS for 30 minutes at 20° C. with 500 rpm shaking. To each well was added one acetone-cleaned 3/32″ 316LVM stainless steel bead, followed by addition of dilutions in PBS of the test sample in a range of concentrations starting from 10 μM. Final volume in each well was 200 μl. The plates were incubated for 1 hour at 20° C. with 500 rpm shaking to allow for the binding to occur. The beads were washed 3 times with 250 μl PBS using a plate washer. […]
In the immunoassay for detecting binding without the presence of 10% BSA with 10 mM guanidinium chloride, added to each well was 200 μl of streptavidin AP (AP is alkaline phosphatase) at 1/200 in TBS+1% BSA. […] When color has developed, each well was read at OD405 nm in endpoint mode using a plate reader. […] When color has developed, the wells were read at OD405 nm in endpoint mode using a plate reader. […]

Square brackets hold non-standard residues; d marks the D form. Ends that are not written are not given here. Aun = NCCCCCCCCCCC(=O)O

Results on 6 substances are retold here after patent US20090246248A1, “COATING COMPOSITIONS HAVING IMPROVED PERFORMANCE” (priority 2008, published 2009).

What is called EC50 is the concentration needed to bring the measured effect to its halfway point. With “SSHRTNHKKNNPKKKNKTRGSSGK [Compound 131, AUD-AUD-AUD-AUD-AUD-AUD-AUD-AUD-SEQ ID NO: 122]”, the response in data set [1] was half-maximal at 0.1 µM (EC50). Also, the CMC in data set [2] came out at 0.37 µM.
Regarding “Ac-Y-AUD-AUD-AUD-AUD-AUD-AUD-SEQ ID NO: 122 (Ac-Y[Aun][Aun][Aun][Aun][Aun][Aun]SSHRTNHKKNNPKKKNKTRGSSGK) [Compound 132]”, the midpoint of the response in data set [1], the EC50, lay at 0.06 µM. This substance also displayed a CMC in data set [2] of 0.123 µM. Also, the “composition remained bound to the coated stents” value is on record as “over 90%” in data set [3] (10% BSA+10 mM guanidinium chloride, 18 hours) and “over 90%” in data set [3] (human plasma, 7 days).
For “SSHRTNHKKNNPKKKNKTRGSSGK [Compound 130, AUD-AUD-AUD-AUD-AUD-AUD-SEQ ID NO: 122]”, the EC50 in data set [1] amounted to 10 µM. For the same substance, the CMC in data set [2] was found to be 0.041 µM.
For the substance “SSSCLIDMYGVCHNFDGAYDSSRG [Compound 134, AUD-AUD-AUD-AUD-SEQ ID NO: 124-linker-SEQ ID NO: 122]”, the concentration for a half-maximal effect (EC50) in data set [1] was found to be 10 µM. Further, in data set [4] (Volume 20 μl inoculum), the “cfu 1:10” value is on record as “—”, the “cfu 1:100” value is reported as “—”, the “cfu 1:1000” value was “—” and the cfu undiluted result is listed as “—”. In data set [4] (Volume 40 μl inoculum), the “cfu 1:10” value was 6 cfu, the “cfu 1:100” value turned out to be 1 cfu, the “cfu 1:1000” value is recorded as “—” and the cfu undiluted result is “many”. Besides, in data set [4] (Volume 60 μl inoculum), the “cfu 1:10” value came out at 17 cfu, the “cfu 1:100” value is 5 cfu, the “cfu 1:1000” value was “—” and the cfu undiluted result is recorded as “many”.
For the substance “AUD-AUD-K-AUD-AUD-AUD-AUD-SEQ ID NO: 122 ([Aun][Aun]K[Aun][Aun][Aun][Aun]SSHRTNHKKNNPKKKNKTRGSSGK) [Compound 123]”, the “retention of binding compared to substrate-binding peptide alone (SEQ ID NO:122)” value in data set [5] is listed as “significantly improved retention”. Also, the CMC in data set [2] was 0.04 µM.
Turning to “AUD-AUD-AUD-AUD-SEQ ID NO:122 ([Aun][Aun][Aun][Aun]SSHRTNHKKNNPKKKNKTRGSSGK) [Compound 122]”, the “retention of binding compared to substrate-binding peptide alone (SEQ ID NO:122)” value in data set [5] was “significantly improved retention”. This substance also yielded a CMC in data set [2] of 0.123 µM.
